Reference: patent US20070167495A1, “Pleuromutilin derivatives, process for their preparation and uses thereof” (GLAXO[…] UNLIMITED, priority 2003, published 2007)

Tests used:
[1] = literature background (Egger and Reinshagen, J. Antibiotics 1976); cited from earlier work
[2] = test system: Streptococcus pneumoniae 1629; experiment: Antibacterial activity, MIC against Streptococcus pneumoniae 1629; assay type: cell-based
[3] = test system: Staphylococccus aureus Oxford; experiment: Antibacterial activity, MIC against Staphylococccus aureus Oxford; assay type: cell-based, Staphylococcus aureus

Compound | antibacterial activity [1] | MIC [2] | MIC [3]
C=C[C@]1(C)C[C@@H](OC(=O)CSc2ccccc2C(=O)O)[C@]2(C)[C@H](C)CC[C@]3(CCC(=O)[C@H]32)[C@@H](C)[C@@H]1O [(2-carboxylato-phenylsulfanyl)-acetic acid mutilin 14-ester] | inferior in activity even to the parent substance pleuromutilin | 8 micrograms per millillitre | 0.5 micrograms per millillitre
C=C[C@]1(C)C[C@@H](O)[C@]2(C)[C@H](C)CC[C@]3(CCC(=O)[C@H]32)[C@@H](C)[C@@H]1O [Mutilin] | inactive |  | 
C=C[C@]1(C)C[C@@H](OC(=O)CO)[C@]2(C)[C@H](C)CC[C@]3(CCC(=O)[C@H]32)[C@@H](C)[C@@H]1O [Pleuromutilin] | modest antibacterial activity |  | 
(4-Carboxylato-phenylsulfanyl)-acetic acid mutilin 14-ester [Example 1] |  | 0.5 micrograms per millillitre | 0.125 micrograms per millillitre
